Assay results taken from patent publication US20150118229A1, “JAK1 SELECTIVE INHIBITOR AND USES THEREOF” (ABBVIE INC., priority 2013, published 2015).
“Also recorded” adds a separate entry of the source. Read-outs that look alike come from different tables or passages of the source.

What was measured:
[1] = system: IL-7-dependent STAT5 phosphorylation; test: Ex vivo IL-7-stimulated pSTAT5 in blood of orally dosed rats; conditions: Rattus norvegicus, po; rats dosed bid 14 days, blood 12 hours after final dose; read-out: IC50, inhibition of IL-7-induced pSTAT5 formation ex vivo
Text: Unlike other common gamma chain receptors, IL-7 receptors are expressed relatively abundantly on peripheral blood T cells, enabling the use of IL-7 as an agonist in ex vivo stimulation assays. Stimulation of whole blood with IL-7 leads to phosphorylation of STAT5, which can be measured by flow cytometry. Because STAT proteins are Jak kinase substrates, inhibition of their phosphorylation can be considered a mechanistic readout for Jak inhibition.

[2] = system: peripheral NK, NKT cells, circulating reticulocytes; test: NK, NKT cell and reticulocyte counts in healthy human subjects dosed bid for 14 days; type: in vivo; conditions: 3, 6, 12, 24 mg bid 14 days
Procedure: The following procedure is provided to illustrate a method of counting TBNK cells from a blood sample, such as one collected from a human subject orally dosed with a compound of the invention. The method (including the type of instruments and reagents used) as described herein in is non-limiting, as minor variations to the procedure and equivalent instruments and reagents can be readily envisioned.
Specifically, a blood sample is collected into 3 mL lavender K2 EDTA Vacutainer at specified time points and tubes mixed. Samples are shipped to analysis facility at ambient temperature overnight, and sample analysis is preferably done on the day received.
Two BD Trucount tubes (BD Biosciences, cat #340334) are used per sample and labeled with sample number followed by A or B. Two tubes are also set up for the BD Multi-Check Control (BD Biosciences, cat #340911) that is a stabilized blood sample used as an inter-run control each time samples are analyzed. […]
For NKT cell determination, cell numbers are determined by using FlowJo and looking at the CD3^+/CD16^+/CD56^+ population. The number of cells/μL is calculated by using the following equation: (the number of events in cell population/the number of events in absolute bead count region)×(the number of beads per test*/test volume). *This value is found on BD Trucount tube label.

[3] = Metabolic stability in liver microsomes, rat; type: in vitro ADME; conditions: read-out: intrinsic clearance in liver microsomes (scaled) (converted)
CYP3A5 = CYP3A5 (Homo sapiens, UniProt P20815); test: Metabolism by recombinant CYP3A5; type: in vitro ADME
Text: In vitro biotransformation of Compound 1 primarily occurred at imidazolpyrrolopyrazinyl ethyl pyrrolidine moiety.

[4] = system: Balb/c 3T3 mouse fibroblasts; test: Neutral red uptake phototoxicity assay; type: cell-based
[5] = Metabolic stability in liver microsomes, dog; type: in vitro ADME; conditions: read-out: intrinsic clearance in liver microsomes (scaled)
Rock1 = Rock1 (Homo sapiens, UniProt Q13464); test: Kinase panel, Rock1; type: biochemical
CYP2C9 = CYP2C9 (Homo sapiens, UniProt P11712); test: CYP inhibition in human liver microsomes, CYP2C9
[6] = Human PK, multiple ascending dose Study M13-845 Substudy 1; type: in vivo; conditions: for AUC: human, in vivo, oral
[7] = dog, in vivo
OAT3 = OAT3 (Homo sapiens, UniProt Q8TCC7); test: Transporter inhibition, OAT3
CYP1A2 = CYP1A2 (Homo sapiens, UniProt P05177); test: CYP inhibition in human liver microsomes, CYP1A2
CYP2D6 = CYP2D6 (Homo sapiens, UniProt P10635); test: CYP inhibition in human liver microsomes, CYP2D6
[8] = Metabolic stability in hepatocytes, dog; type: in vitro ADME; conditions: read-out: intrinsic clearance in hepatocytes (converted)
[9] = Non-GLP 4-week oral screening toxicity study in dogs; type: in vivo, beagle dogs; conditions: dog, 4 weeks
[10] = 12 mg BID, Day 14, mean (% CV), Western subjects, listed as Comp. 1
[11] = 24 mg BID, Day 14, mean (% CV), Western subjects, listed as Comp. 1

CYP2D6, sequence (P10635 whole entry): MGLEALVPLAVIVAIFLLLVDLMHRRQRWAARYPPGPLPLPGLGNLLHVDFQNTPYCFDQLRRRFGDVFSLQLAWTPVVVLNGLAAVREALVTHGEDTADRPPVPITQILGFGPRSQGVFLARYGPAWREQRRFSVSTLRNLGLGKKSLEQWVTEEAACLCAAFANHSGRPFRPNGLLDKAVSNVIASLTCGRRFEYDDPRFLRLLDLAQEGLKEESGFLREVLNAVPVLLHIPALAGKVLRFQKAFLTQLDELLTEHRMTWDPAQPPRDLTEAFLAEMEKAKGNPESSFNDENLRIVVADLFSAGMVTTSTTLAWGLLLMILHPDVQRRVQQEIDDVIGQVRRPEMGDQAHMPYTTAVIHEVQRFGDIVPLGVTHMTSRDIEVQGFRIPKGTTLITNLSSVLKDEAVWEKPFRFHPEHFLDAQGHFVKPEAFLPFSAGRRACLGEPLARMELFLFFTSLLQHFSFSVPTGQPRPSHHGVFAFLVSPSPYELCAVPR
CYP1A2, sequence (P05177 whole entry): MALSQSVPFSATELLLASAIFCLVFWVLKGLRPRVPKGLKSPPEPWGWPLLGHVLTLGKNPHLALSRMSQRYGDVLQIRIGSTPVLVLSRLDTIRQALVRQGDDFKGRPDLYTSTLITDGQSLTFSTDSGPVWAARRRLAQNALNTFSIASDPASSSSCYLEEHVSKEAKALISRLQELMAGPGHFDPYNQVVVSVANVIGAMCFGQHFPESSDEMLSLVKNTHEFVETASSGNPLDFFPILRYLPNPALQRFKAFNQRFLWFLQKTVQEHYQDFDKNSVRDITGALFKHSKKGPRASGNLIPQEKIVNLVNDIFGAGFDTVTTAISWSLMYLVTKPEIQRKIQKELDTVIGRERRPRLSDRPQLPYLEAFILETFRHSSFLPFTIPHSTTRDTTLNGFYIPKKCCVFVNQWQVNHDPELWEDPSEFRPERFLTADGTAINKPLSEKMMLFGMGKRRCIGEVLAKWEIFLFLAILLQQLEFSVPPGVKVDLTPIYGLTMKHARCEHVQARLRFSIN
CYP2C9, sequence (P11712 whole entry): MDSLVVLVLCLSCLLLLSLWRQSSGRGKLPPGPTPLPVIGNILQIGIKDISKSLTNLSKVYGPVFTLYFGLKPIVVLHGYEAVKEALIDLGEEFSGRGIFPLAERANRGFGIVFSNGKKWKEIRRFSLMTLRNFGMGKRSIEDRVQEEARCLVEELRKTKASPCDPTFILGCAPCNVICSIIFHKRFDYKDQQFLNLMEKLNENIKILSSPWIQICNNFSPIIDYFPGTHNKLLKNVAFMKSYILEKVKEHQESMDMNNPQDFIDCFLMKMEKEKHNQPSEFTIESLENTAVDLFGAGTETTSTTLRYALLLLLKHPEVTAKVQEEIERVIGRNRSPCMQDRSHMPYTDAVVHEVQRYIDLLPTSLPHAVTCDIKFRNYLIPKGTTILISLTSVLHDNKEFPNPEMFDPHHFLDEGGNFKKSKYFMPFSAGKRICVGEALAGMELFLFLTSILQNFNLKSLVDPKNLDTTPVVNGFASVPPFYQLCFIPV
CYP3A5, sequence (P20815 whole entry): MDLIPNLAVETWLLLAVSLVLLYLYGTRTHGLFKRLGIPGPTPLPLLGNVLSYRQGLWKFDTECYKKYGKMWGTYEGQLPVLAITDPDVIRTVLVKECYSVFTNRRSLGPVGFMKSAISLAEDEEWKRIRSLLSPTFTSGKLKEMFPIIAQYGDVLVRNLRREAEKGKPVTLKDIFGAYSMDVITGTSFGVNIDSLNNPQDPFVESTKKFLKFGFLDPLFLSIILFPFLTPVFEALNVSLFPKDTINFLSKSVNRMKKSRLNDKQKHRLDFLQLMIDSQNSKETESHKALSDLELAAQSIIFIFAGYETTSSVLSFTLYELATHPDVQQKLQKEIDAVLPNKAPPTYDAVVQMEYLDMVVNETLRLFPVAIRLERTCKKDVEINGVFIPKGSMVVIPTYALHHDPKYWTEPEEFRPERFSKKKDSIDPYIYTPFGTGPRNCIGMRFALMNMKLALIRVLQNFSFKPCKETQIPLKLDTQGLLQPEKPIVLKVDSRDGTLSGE
Rock1, sequence (Q13464 whole entry, species assumed): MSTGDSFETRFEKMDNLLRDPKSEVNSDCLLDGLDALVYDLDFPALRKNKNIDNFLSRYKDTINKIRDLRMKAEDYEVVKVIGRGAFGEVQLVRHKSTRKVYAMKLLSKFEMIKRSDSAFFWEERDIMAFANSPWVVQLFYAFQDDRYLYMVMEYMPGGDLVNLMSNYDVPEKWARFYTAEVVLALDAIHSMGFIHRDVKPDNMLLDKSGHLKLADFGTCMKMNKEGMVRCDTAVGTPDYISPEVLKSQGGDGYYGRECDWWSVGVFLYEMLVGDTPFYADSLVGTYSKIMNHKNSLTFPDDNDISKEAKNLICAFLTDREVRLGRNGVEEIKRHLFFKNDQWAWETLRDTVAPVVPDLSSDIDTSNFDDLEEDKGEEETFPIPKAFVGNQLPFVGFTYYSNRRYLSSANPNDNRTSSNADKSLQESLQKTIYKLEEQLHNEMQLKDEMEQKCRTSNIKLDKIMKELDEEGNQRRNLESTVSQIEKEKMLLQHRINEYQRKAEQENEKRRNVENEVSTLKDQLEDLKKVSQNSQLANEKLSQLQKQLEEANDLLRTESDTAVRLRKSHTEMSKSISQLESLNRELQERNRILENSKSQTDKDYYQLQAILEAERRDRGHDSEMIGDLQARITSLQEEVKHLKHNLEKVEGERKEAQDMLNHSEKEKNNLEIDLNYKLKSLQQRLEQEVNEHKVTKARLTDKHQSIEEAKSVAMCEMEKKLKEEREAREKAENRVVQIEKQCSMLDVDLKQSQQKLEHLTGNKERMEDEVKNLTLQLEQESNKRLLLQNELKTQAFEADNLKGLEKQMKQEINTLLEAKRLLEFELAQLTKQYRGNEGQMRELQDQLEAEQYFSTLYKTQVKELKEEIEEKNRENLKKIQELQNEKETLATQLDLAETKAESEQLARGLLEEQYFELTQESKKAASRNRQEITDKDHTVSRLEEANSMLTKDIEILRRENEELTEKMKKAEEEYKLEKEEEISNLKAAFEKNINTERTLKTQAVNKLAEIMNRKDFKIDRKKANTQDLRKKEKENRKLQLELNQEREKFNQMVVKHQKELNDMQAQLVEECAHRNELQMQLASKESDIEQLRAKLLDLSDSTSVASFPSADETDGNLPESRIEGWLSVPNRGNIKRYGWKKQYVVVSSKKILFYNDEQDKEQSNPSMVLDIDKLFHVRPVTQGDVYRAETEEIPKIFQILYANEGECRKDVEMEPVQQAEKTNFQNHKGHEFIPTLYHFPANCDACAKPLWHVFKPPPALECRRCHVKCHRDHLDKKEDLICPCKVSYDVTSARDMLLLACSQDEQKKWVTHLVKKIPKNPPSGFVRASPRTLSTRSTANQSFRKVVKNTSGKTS
OAT3, sequence (Q8TCC7 whole entry): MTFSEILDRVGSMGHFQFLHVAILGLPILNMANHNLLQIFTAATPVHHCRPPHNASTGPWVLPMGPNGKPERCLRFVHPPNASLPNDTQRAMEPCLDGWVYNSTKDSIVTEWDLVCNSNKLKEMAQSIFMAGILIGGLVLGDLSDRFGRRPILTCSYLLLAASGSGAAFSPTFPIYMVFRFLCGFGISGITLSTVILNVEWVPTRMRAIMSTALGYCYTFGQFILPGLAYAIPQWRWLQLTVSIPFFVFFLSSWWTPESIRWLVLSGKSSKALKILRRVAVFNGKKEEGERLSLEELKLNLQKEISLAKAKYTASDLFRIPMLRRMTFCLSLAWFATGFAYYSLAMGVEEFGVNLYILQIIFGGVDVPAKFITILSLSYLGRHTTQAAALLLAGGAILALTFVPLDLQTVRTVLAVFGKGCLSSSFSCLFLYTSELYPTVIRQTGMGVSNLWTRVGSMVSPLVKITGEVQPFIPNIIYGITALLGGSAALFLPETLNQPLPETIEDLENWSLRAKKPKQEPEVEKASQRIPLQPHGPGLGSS

Question: For `CC[C@@H]1CN(C(=O)NCC(F)(F)F)C[C@@H]1c1cnc2cnc3[nH]ccc3n12` [Compound 1, (3S,4R)-3-ethyl-4-(3H-imidazo[1,2-a]pyrrolo[2,3-e]pyrazin-8-yl)-N-(2,2,2-trifluoroethyl)pyrrolidine-1-carboxamide], which IC50 [1] is on record?
Answer: ~20 nM

Question: What about the “peripheral NK or NKT cell counts per μL” value [2] of the same compound?
Answer: only at 12 and 24 mg

Question: What about the reticulocyte counts [2] of the same compound?
Answer: does not dose dependently reduce reticulocyte counts

Question: What about the CLint scaled at 0.5 μM [3] of the same compound?
Answer: 84.7 mL/min/kg

Question: And the “percentage of parent remaining” value (CYP3A5)?
Answer: 80.6%

Question: What about the phototoxicity potential [4] of the same compound?
Answer: negative

Question: And the CLint scaled at 0.5 μM [5]?
Answer: < 33.3 mL/min/kg

Question: What about the IC50 (Rock1) of the same compound?
Answer: 550 nM

Question: And the “time-dependent inhibition of CYP2C9” value (CYP2C9; human liver microsomes)?
Answer: No obvious time-dependent inhibition

Question: And the “inhibition of CYP2C9” value (CYP2C9; up to 30 μM)?
Answer: did not inhibit; also recorded: not an inhibitor

Question: What about the AUC12/dose ([6]; 3 mg BID, Day 1) of the same compound?
Answer: 25.1 ng·h/mL/mg

Question: And the C12/dose ([6]; 3 mg BID, Day 1)?
Answer: 0.32 ng/mL/mg

Question: And the Cmax/dose ([6]; 3 mg BID, Day 1)?
Answer: 6.33 ng/mL/mg

Question: What about the AUC12/dose ([6]; 3 mg BID, Day 14) of the same compound?
Answer: 26.1 ng·h/mL/mg

Question: What about the Cmax/dose ([6]; 3 mg BID, Day 14) of the same compound?
Answer: 6.16 ng/mL/mg

Question: What about the “Fe %, unchanged drug recovered in urine” value ([6]; 3 mg BID, Day 14) of the same compound?
Answer: 18.8%

Question: And the AUC12/dose ([6]; 6 mg BID, Day 1)?
Answer: 22.3 ng·h/mL/mg

Question: And the C12/dose ([6]; 6 mg BID, Day 1)?
Answer: 0.30 ng/mL/mg

Question: And the Cmax/dose ([6]; 6 mg BID, Day 1)?
Answer: 4.91 ng/mL/mg

Question: What about the AUC12/dose ([6]; 6 mg BID, Day 14) of the same compound?
Answer: 23.1 ng·h/mL/mg

Question: What about the Cmax/dose ([6]; 6 mg BID, Day 14) of the same compound?
Answer: 4.80 ng/mL/mg

Question: And the “Fe %, unchanged drug recovered in urine” value ([6]; 6 mg BID, Day 14)?
Answer: 18.7%

Question: And the AUC12/dose ([6]; 12 mg BID, Day 1)?
Answer: 22.5 ng·h/mL/mg

Question: And the C12/dose ([6]; 12 mg BID, Day 1)?
Answer: 0.33 ng/mL/mg

Question: What about the Cmax/dose ([6]; 12 mg BID, Day 1) of the same compound?
Answer: 4.84 ng/mL/mg

Question: And the “Fe %, unchanged drug recovered in urine” value ([6]; 12 mg BID, Day 14)?
Answer: 21.4%

Question: What about the AUC12/dose [6, 10] of the same compound?
Answer: 22.6 ng·h/mL/mg

Question: And the Cmax/dose [6, 10]?
Answer: 4.80 ng/mL/mg

Question: What about the AUC12/dose ([6]; 24 mg BID, Day 1) of the same compound?
Answer: 22.5 ng·h/mL/mg

Question: What about the C12/dose ([6]; 24 mg BID, Day 1) of the same compound?
Answer: 0.32 ng/mL/mg

Question: And the Cmax/dose ([6]; 24 mg BID, Day 1)?
Answer: 5.25 ng/mL/mg

Question: And the “Fe %, unchanged drug recovered in urine” value ([6]; 24 mg BID, Day 14)?
Answer: 18.7%

Question: What about the AUC12/dose [6, 11] of the same compound?
Answer: 22.0 ng·h/mL/mg

Question: And the Cmax/dose [6, 11]?
Answer: 4.95 ng/mL/mg

Question: And the AUC ([6]; 3 mg, 3 mg BID, Day 1, mean, read-out: AUC12)?
Answer: 75.3 ng·h/mL

Question: And the AUC ([6]; 3 mg, 3 mg BID, Day 14, mean, read-out: AUC12)?
Answer: 78.3 ng·h/mL

Question: What about the AUC ([6]; 6 mg, 6 mg BID, Day 14, mean, read-out: AUC12) of the same compound?
Answer: 138 ng·h/mL

Question: What about the AUC ([6]; 6 mg, AUC12, 6 mg BID, Day 1, mean, heading: AUC12) of the same compound?
Answer: 134 ng·h/mL

Question: What about the AUC ([6]; 12 mg, 12 mg BID, Day 1, mean, read-out: AUC12) of the same compound?
Answer: 270 ng·h/mL

Question: And the AUC ([6]; 12 mg, 12 mg BID, Day 14, mean, read-out: AUC12)?
Answer: 271 ng·h/mL

Question: And the AUC ([6]; 24 mg, 24 mg BID, Day 1, mean, read-out: AUC12)?
Answer: 540 ng·h/mL

Question: What about the AUC ([6]; 24 mg, 24 mg BID, Day 14, mean, read-out: AUC12) of the same compound?
Answer: 529 ng·h/mL

Question: And the “AUC lower in fed than fasted animals” value [7]?
Answer: approximately 40%

Question: What about the “Cmax lower in fed than fasted animals” value [7] of the same compound?
Answer: approximately 3 fold

Question: And the Vc ([7]; iv, 1 mg/kg)?
Answer: 1.9 L/kg

Question: And the Vβ ([7]; iv, 1 mg/kg)?
Answer: 2.9 L/kg

Question: What about the F ([7]; po, 5 mg/kg) of the same compound?
Answer: 65.8 (12.1) %

Question: What about the IC50 (OAT3) of the same compound?
Answer: 43000 nM

Question: What about the “time-dependent inhibition of CYP1A2” value (CYP1A2; human liver microsomes) of the same compound?
Answer: No obvious time-dependent inhibition

Question: What about the “inhibition of CYP1A2” value (CYP1A2; up to 30 μM) of the same compound?
Answer: did not inhibit; also recorded: not an inhibitor

Question: And the “time-dependent inhibition of CYP2D6” value (CYP2D6; human liver microsomes)?
Answer: No obvious time-dependent inhibition

Question: And the “inhibition of CYP2D6” value (CYP2D6; up to 30 μM)?
Answer: did not inhibit; also recorded: not an inhibitor

Question: What about the CLint scaled at 1 μM [8] of the same compound?
Answer: 6.92 mL/min/kg

Question: What about the NOAEL ([9]; 5 mg/kg/day) of the same compound?
Answer: None

Question: What about the “Adverse Findings” value ([9]; leading number = dose mg/kg/day) of the same compound?
Answer: 5: Popliteal lymph
